Source: article PMC6731595, “The anti-parasitic agent suramin and several of its analogues are inhibitors of the DNA binding protein Mcm10” (Open Biology, 2019)
{FAM} = 6-carboxyfluorescein (6FAM) label

Key:
[1] = target: T1, hMcm10-ID (Homo sapiens, UniProt Q7L590); test: FP saturation binding of probe to hMcm10-ID; settings: probe 12.5 nM, mean ± SEM, n = 3
T1 construct: hMcm10-ID (residues 237 to 436) were expressed in E. coli strain BL21(DE3); 6xHis (HRV 3C site) (N, cleaved yes); made in house; host or cells: E. coli BL21(DE3)
T1 sequence (Q7L590 237-436): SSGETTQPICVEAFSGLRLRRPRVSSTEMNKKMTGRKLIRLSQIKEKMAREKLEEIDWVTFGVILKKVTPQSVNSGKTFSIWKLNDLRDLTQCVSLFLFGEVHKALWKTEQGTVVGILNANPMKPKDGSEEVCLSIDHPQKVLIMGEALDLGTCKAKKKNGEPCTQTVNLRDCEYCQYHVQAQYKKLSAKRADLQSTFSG
Procedure: (§1) The LOPAC pilot screen identified the sulfhydryl reagent 4-chloromercuribenzoic acid as an inhibitor in the fluorescence polarization (FP) assay. As there was no known Mcm10 inhibitor, 4-chloromercuribenzoic acid (30 μM) was used as a positive control on initial screening plates. Following the discovery of suramin as a Mcm10 inhibitor, suramin (7 μM) was used as a positive control on subsequent screening plates. To confirm activity, screening hits were tested in dose response experiments (8 concentrations in duplicate) using xMcm10-ID. Similar dose response experiments were conducted with suramin and its analogs to confirm activity for hMcm10-ID (1 μM) and xMcm10-FL (2 μM) and to determine selectivity relative to RPA70AB (0.4 μM). […] FP was measured in mP units, and ∆mP values for each well were calculated as the difference between the measured mP and the average of the “probe only” controls. […] The parallel and perpendicular mP values were also used to calculate total fluorescence intensity (TFI) determined by the sum of parallel mP + (2 x perpendicular mP). TFI was used to detect fluorescence interference by compounds [1]. […] IC50 values were calculated using the four parameter logistic equation in Prism 6.0 (GraphPad). […] KD values were calculated using the one site or two site binding equations in Prism 6.0 (GraphPad). […]

[2] = target: T2, human RPA70AB (Homo sapiens, UniProt P27694); test: FP saturation binding of probe to RPA70AB; settings: probe 12.5 nM, mean ± SEM, n = 3, listed as 5′-6FAM DNA probe
T2 construct: recombinant human RPA70AB (181-422) in a pSV281 vector; 6xHis (TEV site) (N, cleaved yes); made in house; host or cells: Escherichia coli BL21(DE3)
T2 sequence (P27694 181-422): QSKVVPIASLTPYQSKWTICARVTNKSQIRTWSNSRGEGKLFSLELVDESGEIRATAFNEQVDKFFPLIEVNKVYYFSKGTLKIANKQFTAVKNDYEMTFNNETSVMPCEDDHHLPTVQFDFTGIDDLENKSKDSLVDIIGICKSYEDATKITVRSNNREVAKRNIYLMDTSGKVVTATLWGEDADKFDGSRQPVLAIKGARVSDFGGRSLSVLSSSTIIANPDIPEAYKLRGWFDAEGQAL
Procedure: as §1

Substance: 5′-6-FAM-ATGGTAGGCA (DNA, 5' {FAM}, backbone and methylation of C not given here) [5’-6-FAM 10-mer ssDNA, 5′-6-carboxyfluorescein 10-mer DNA FP probe]
- KD of FP probe for hMcm10-ID [1]: low micromolar affinity
- Kd [2]: 400 nM
